Source: publication PMC9413491, “A Novel and Cross-Species Active Mammalian INDY (NaCT) Inhibitor Ameliorates Hepatic Steatosis in Mice with Diet-Induced Obesity” (Metabolites, 2022)
Read-outs that look alike come from different tables or passages of the source.

Experiments:
human NaCT = target: T1, human NaCT (Homo sapiens, UniProt Q86YT5); experiment: [14C] citrate uptake in HepG2 cells endogenously expressing human NaCT; format: cell-based; settings: HepG2, human NaCT, citrate substrate
T1 construct: citrate uptake into HepG2 cells, which endogenously expressed NaCT; host or cells: HepG2
From the text: (§1) We determined activity on human NaCT by measuring citrate uptake into HepG2 cells, which endogenously expressed NaCT [37] and for mouse Nact, using HEK293 cells recombinantly expressing mouse Nact (HEK-Nact). We cloned the mouse Slc13a5 cDNA encoding Nact as described previously.
(§2) For radiometric [14C] citrate uptake assays, we used Cytostar-T plates (Perkin Elmer#RPNQ0166, Waltham, MA, USA). For each assay, we seeded 20,000 HepG2 cells per well on collagen coated 384-well Cytostar-T plates or 5000 HEK293 cells per well on ploy-D-lysine coated 384-well Cytostar-T plates. On the following day, we changed culture medium to assay buffer: 120 mM NaCl, 5.4 mM KCl, 0.8 mM MgSO4, 5 mM glucose, 1.8 mM CaCl2, 25 mM Hepes, 25 mM MES, pH 6.5 (human) and pH 7.5 (mouse). We preincubated cells with compounds at 37 °C for 20 min, after which we added [14C] citrate (3 µM for HEK cells and 10 µM for HepG2 cells) and incubated cells for 50 min at 37 °C. After cooling down for 15 min at 4 °C, we measured the counts using a Microbeta2 reader system (Perkin Elmer).

mouse Nact = target: T2, mouse Nact (Mus musculus, UniProt Q67BT3); experiment: [14C] citrate uptake in HEK293 cells recombinantly expressing mouse Nact; format: cell-based; settings: HEK293 mouse Nact
T2 construct: expressed in transfected cells; host or cells: HEK293 (DSMZ), stably transfected, G418 selection
T2 sequence (Q67BT3 1-572): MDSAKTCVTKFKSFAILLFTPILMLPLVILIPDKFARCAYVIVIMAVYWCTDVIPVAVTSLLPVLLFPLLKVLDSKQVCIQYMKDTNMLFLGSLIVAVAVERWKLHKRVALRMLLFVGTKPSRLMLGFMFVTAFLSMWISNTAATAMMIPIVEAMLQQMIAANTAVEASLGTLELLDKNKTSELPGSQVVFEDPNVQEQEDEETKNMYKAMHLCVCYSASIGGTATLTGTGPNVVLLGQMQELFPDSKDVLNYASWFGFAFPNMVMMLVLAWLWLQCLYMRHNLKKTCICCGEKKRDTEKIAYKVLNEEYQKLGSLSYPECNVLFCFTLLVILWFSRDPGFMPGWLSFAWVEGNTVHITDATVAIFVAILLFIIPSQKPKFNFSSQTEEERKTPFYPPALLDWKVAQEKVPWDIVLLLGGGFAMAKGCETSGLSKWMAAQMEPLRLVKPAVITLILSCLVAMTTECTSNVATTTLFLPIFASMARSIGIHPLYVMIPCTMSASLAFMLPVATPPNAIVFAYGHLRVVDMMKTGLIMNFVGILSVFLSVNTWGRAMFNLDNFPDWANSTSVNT
From the text: as §1, §2

[1] = system: fatty acid synthesis in HepG2 cells; experiment: Fatty acid synthesis assay ([14C] citrate incorporation) in HepG2 cells; format: cell-based, human
Method: We performed the fatty acid synthesis assay in HepG2 cells. We seeded cells into black clear-bottom 96-well plates (Corning 3340 cell plate) 75,000/well and incubated at 37 °C. After 16–24 h, we washed the plates once with 100 µL PBS (+CaCl2 +MgCl2) and added 50 µL assay medium ([…] containing 11 mM glucose, 10 mM HEPES, and 1 nM insulin) per well. Then, we applied test substances in assay medium (10 µL, 5% DMSO) and incubated for 20 min at 37 °C. Thereafter, we added 10 µL assay medium containing [14C] citrate (final concentration 50 µM) and PrestoBlue reagent (1× final concentration; Thermo Fisher Scientific, Waltham, MA, USA) and incubated for 180 min (37 °C, 5% CO2). We measured cell viability (ViewLux instrument, Perkin Elmer). We removed medium by vacuum aspiration and washed cells once with 100 µL PBS (+CaCl2 +MgCl2). We lysed cells with 50 µL lysis buffer (0.1 N NaOH, 0.1 % Triton X-100) and sealed plates with Tape Pads and vortexed. For the saponification reaction, we incubated plates for 16–24 h at 70 °C in a humidified environment. Then, we removed seals and added 200 µL 0.1 N HCl to neutralise the pH. We transferred 150 µL from each into corresponding wells of a 96-well Flash plate (Perkin Elmer) and sealed with TopSeal A (Perkin Elmer). We incubated plates for 4 h at 70 °C and for at least 3 h at room temperature in the dark. We measured [14C] radioactivity (microbeta2, Perkin Elmer). For control samples, we applied 50 mM unlabelled citrate or C75 (Sigma-Aldrich, St. Louis, MO, USA, C5490).

T1 sequence (Q86YT5 whole entry): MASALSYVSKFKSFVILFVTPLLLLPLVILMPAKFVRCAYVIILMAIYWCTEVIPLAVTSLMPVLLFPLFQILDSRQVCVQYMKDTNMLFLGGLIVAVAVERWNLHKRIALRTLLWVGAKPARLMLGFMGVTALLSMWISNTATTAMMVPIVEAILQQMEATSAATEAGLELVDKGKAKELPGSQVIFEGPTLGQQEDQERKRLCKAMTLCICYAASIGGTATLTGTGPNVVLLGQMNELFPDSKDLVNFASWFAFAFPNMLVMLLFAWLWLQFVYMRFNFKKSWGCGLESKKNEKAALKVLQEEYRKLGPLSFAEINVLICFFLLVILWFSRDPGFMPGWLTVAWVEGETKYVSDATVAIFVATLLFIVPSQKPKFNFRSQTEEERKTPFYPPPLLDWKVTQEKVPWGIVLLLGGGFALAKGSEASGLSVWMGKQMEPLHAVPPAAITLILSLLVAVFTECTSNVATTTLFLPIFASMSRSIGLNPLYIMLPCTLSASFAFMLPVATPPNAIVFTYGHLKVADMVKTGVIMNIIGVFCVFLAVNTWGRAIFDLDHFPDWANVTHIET

IC50 (human NaCT) | Effect on citrate uptake for mouse Nact (mouse Nact) | IC50 (mouse Nact; read-out: IC50 HEK293 citrate uptake (mouse)) | IC50 ([1]; HepG2, read-out: IC50 HepG2 fatty acid synthesis) | IC50 ([1]; HepG2, [14C] citrate incorporation, read-out: IC50 fatty acid synthesis, HepG2) | SMILES
78 nM | no effects | > 50000 nM | 30 nM | – | O=C(NCc1ccc(F)cc1)C1CCN(S(=O)(=O)c2cc(Cl)cc(Cl)c2)CC1 [BI01383298, reference compound]
– | – | – | – | 39000 nM | CC(C)(C)c1ccc(CC[C@@](O)(CC(=O)O)C(=O)O)cc1 [PF-06649298, reference compound]
